Assay results from paper PMC11721672, “Design, Structure–Activity Relationships, and Computational Modeling Studies of a Series of α-Helix Biased, Ultra-Short Glucagon-like Peptide-1 Receptor Agonists” (Molecules, 2024).
Read-outs that look alike come from different tables or passages of the source. Square brackets hold non-standard residues; d marks the D form. Peptide text beside a SMILES is read from it. Bip = N[C@@H](Cc1ccc(-c2ccccc2)cc1)C(=O)O; αMePhe(2-F) = C[C@](N)(Cc1ccccc1F)C(=O)O; Phe(2-F) = N[C@@H](Cc1ccccc1F)C(=O)O; Aib = CC(C)(N)C(=O)O

Target: T1, hGLP1 receptor (Homo sapiens, UniProt P43220)
T1 construct: expressed in transfected cells; host or cells: HEK (human embryonic kidney) cells co-expressing hGLP1 receptor and CRE-Luciferase
Assay: GLP-1 receptor agonism assay (HTRF cAMP, HEK cells co-expressing hGLP1 receptor and CRE-Luciferase)
Format: cell-based
Settings: for rescue of potency by Aib versus Ala substitution: Aib analog versus Ala analog at the same position; for decreased potency by Aib substitution: Aib-scanning, versus parent analog RXL-101; for Emax: HEK293, Table 6 potency profile; for pEC50 / dpEC50 (contribution of Cα-methylation) / EC50: 0% HSA; for dpEC50 (contribution of Cα-methylation): dpEC50 = pEC50 (Aib) − pEC50 (Ala) − 0.97, Aib peptide versus the Ala peptide of the same line
Protocol: Human embryonic kidney cells (HEK) co-expressing the hGLP1 receptor and CRE-Luciferase construct were used to determine agonist potency in this assay. The cells were thawed briefly at 37 °C, transferred to a sterile tube, and re-suspended in complete media at 37 °C. Cells were centrifuged at 1000 rpm for 5 min and collected; the cells were then re-suspended in an assay buffer consisting of Dulbecco’s phosphate-buffered saline (DPBS, GIBCO) with 500 μM of the phosphodiesterase inhibitor 3-isobutyl-1-methylxanthine (IBMX). The assay medium had 0% serum albumin, as specified in Table 1, Table 2, Table 3 and Table 4. The optimal cell density was determined to be 1000 cells/well. Cells were added to wells in 384-well plates containing appropriate pre-prepared dilutions of compounds (test peptides or reference compound exendin-4), sealed, and incubated with CO2 for 30 min. Test peptide solutions were diluted from 10 mM stock solutions to be used in two separate runs (performed in triplicate) from a maximal concentration of 1.0 μM, with 11 concentrations tested for each peptide using serial 1:3 dilution from this maximal concentration. […] The agonist assay was a homogeneous time-resolved fluorescence (HTRF) assay (Cisbio). Following incubation of the cells for 30 min with test or reference peptides, 5 μL of the cAMP acceptor cAMP-d2, prepared previously as a working solution from frozen stock (1:20 dilution), was added to each well of the assay plate along with 5 μL of anti-cAMP antibody-cryptate working solution (diluted 1:20 from frozen stock). The wells were incubated for 1 h at room temperature, and fluorescence was then read at 665 and 615 nm with an Envision reader with a TRF laser. Data were saved and analyzed using Prism software (GraphPad). Concentration–response analysis was performed using 4-parameter logistic fits of the resulting data, and EC50 values were obtained for each test and reference compound.

[1] = Table 2, Ala-scanning, >1000 nM = out of range, read-out: cAMP EC50
[2] = Table 4, Ala-scan peptides, read-out: pEC50 (converted)

T1 sequence (P43220 24-463): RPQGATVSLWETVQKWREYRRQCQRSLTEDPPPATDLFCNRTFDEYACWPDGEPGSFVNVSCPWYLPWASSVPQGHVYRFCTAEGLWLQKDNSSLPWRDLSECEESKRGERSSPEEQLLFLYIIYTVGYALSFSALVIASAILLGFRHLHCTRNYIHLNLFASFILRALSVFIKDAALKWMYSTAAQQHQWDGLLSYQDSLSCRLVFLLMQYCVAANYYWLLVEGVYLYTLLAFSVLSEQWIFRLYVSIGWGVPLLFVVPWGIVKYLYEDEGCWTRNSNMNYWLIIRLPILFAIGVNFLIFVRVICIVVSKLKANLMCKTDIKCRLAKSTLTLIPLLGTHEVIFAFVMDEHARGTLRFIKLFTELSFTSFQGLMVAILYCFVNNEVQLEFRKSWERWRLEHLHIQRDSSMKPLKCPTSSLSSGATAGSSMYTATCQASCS

## C[C@@H](O)[C@H](NC(=O)C(C)(C)NC(=O)[C@H](CCC(=O)O)NC(=O)C(C)(C)NC(=O)[C@@H](N)Cc1c[nH]cn1)C(=O)N[C@@](C)(Cc1ccccc1F)C(=O)N[C@H](C(=O)N[C@@H](CO)C(=O)N[C@@H](CC(=O)O)C(=O)N[C@@H](Cc1ccc(-c2ccccc2)cc1)C(=O)N[C@@H](Cc1ccc(-c2ccccc2)cc1)C(N)=O)[C@@H](C)O [RXL-3032, His-Aib-Glu-Aib-Thr-α-Me-Phe(2-F)-Thr-Ser-Asp-Bip-Bip-NH2] (H-H[Aib]E[Aib]T[αMePhe(2-F)]TSD[Bip][Bip]-NH2)
  rescue of potency by Aib versus Ala substitution: about 10 fold
  decreased potency by Aib substitution: ≥ 100 fold
  Emax: 118%
  dpEC50 (contribution of Cα-methylation): 0.37
Table 4, Aib-scan peptides
  pEC50: 7.80

## C[C@H](NC(=O)[C@@H](NC(=O)[C@H](Cc1ccccc1F)NC(=O)[C@@H](NC(=O)CNC(=O)[C@H](CCC(=O)O)NC(=O)C(C)(C)NC(=O)[C@@H](N)Cc1c[nH]cn1)[C@@H](C)O)[C@@H](C)O)C(=O)N[C@@H](CC(=O)O)C(=O)N[C@@H](Cc1ccc(-c2ccccc2)cc1)C(=O)N[C@@H](Cc1ccc(-c2ccccc2)cc1)C(N)=O [RXL-3006, His-Aib-Glu-Gly-Thr-Phe(2-F)-Thr-Ala-Asp-Bip-Bip-NH2] (H-H[Aib]EGT[Phe(2-F)]TAD[Bip][Bip]-NH2)
  Emax: 120%
[1]
  EC50: 8.5 nM
[2]
  EC50: 1.91 nM

## C[C@H](NC(=O)[C@@H](NC(=O)CNC(=O)[C@H](CCC(=O)O)NC(=O)C(C)(C)NC(=O)[C@@H](N)Cc1c[nH]cn1)[C@@H](C)O)C(=O)N[C@H](C(=O)N[C@@H](CO)C(=O)N[C@@H](CC(=O)O)C(=O)N[C@@H](Cc1ccc(-c2ccccc2)cc1)C(=O)N[C@@H](Cc1ccc(-c2ccccc2)cc1)C(N)=O)[C@@H](C)O [RXL-3038, His-Aib-Glu-Gly-Thr-Ala-Thr-Ser-Asp-Bip-Bip-NH2] (H-H[Aib]EGTATSD[Bip][Bip]-NH2)
  Emax: 37.4%
[1]
  EC50: > 1000 nM
Table 4, Ala-scan peptides
  pEC50: 5.55
Versus respective parent analog
  decreased potency (Aib/Ala comparison): > 1000 fold

## C[C@H](NC(=O)[C@H](CO)NC(=O)[C@@H](NC(=O)[C@H](Cc1ccccc1F)NC(=O)[C@@H](NC(=O)CNC(=O)[C@H](CCC(=O)O)NC(=O)C(C)(C)NC(=O)[C@@H](N)Cc1c[nH]cn1)[C@@H](C)O)[C@@H](C)O)C(=O)N[C@@H](Cc1ccc(-c2ccccc2)cc1)C(=O)N[C@@H](Cc1ccc(-c2ccccc2)cc1)C(N)=O [RXL-3007, His-Aib-Glu-Gly-Thr-Phe(2-F)-Thr-Ser-Ala-Bip-Bip-NH2] (H-H[Aib]EGT[Phe(2-F)]TSA[Bip][Bip]-NH2)
  Emax: 132%
[1]
  EC50: 14 nM
[2]
  EC50: 4.79 nM

## C[C@@H](O)[C@H](NC(=O)CNC(=O)[C@H](CCC(=O)O)NC(=O)C(C)(C)NC(=O)[C@@H](N)Cc1c[nH]cn1)C(=O)N[C@@](C)(Cc1ccccc1F)C(=O)N[C@H](C(=O)NC(C)(C)C(=O)N[C@@H](CC(=O)O)C(=O)N[C@@H](Cc1ccc(-c2ccccc2)cc1)C(=O)N[C@@H](Cc1ccc(-c2ccccc2)cc1)C(N)=O)[C@@H](C)O [RXL-3035, His-Aib-Glu-Gly-Thr-α-Me-Phe(2-F)-Thr-Aib-Asp-Bip-Bip-NH2] (H-H[Aib]EGT[αMePhe(2-F)]T[Aib]D[Bip][Bip]-NH2)
  decreased potency by Aib substitution: ≥ 100 fold
  Emax: 79.1%
  dpEC50 (contribution of Cα-methylation): −2.80

## C[C@@H](O)[C@H](NC(=O)CNC(=O)[C@H](CCC(=O)O)NC(=O)C(C)(C)NC(=O)[C@@H](N)Cc1c[nH]cn1)C(=O)NC(C)(C)C(=O)N[C@H](C(=O)N[C@@H](CO)C(=O)N[C@@H](CC(=O)O)C(=O)N[C@@H](Cc1ccc(-c2ccccc2)cc1)C(=O)N[C@@H](Cc1ccc(-c2ccccc2)cc1)C(N)=O)[C@@H](C)O [RXL-3028, His-Aib-Glu-Gly-Thr-Aib-Thr-Ser-Asp-Bip-Bip-NH2] (H-H[Aib]EGT[Aib]TSD[Bip][Bip]-NH2)
  rescue of potency by Aib versus Ala substitution: more than 10 fold
  decreased potency by Aib substitution: ≥ 100 fold
  Emax: 76.1%
  dpEC50 (contribution of Cα-methylation): 0.46
Table 3, Aib-scanning, >1000 nM = out of range, read-out: cAMP EC50
  EC50: 161 nM
Table 4, Aib-scan peptides, read-out: pEC50 (converted)
  EC50: 105 nM
